Among the data in US7186725B2, “Anti-inflammatory compositions and methods” (Genzyme Corporation, priority 2003, dated 2007) are inhibition values, retold here.

In this assay the test system is purified rat T cells. The experiment in a line: Concanavalin A activated T-cell proliferation assay ([3H] thymidine uptake). In kind it is cell-based. The following applies: 96 h, @ 1 mM. On the procedure: Compounds of Formula I (above), based on an ethyl dimethylaminopropylurea (1) parent structure, have been discovered as active agents against a modified Concanavalin A activated T-cell proliferation assay using purified rat T-cells. These cells were incubated for 4 days and pulsed with [^3H] thymidine for the last 16 hrs of incubation. [^3H] Thymidine uptake was measured as the mean counts per minute (cpm) of duplicate experimental cultures. The compounds of the present invention were discovered by screening a compound library. (directed analogs of parent compound 1) using an assay designed to identify inhibitors of Concanavalin A stimulated T-cell proliferation. Normal dermal fibroblasts and kidney epithelial cell toxicity assays were run on active compounds to eliminate non-selective cytotoxic compounds.

Setting [1] is: Table 3, read-out: Thymidine Uptake (% Reduction @ 1 mM).
[2] abbreviates: Table 1, read-out: Thymidine Uptake (% Reduction @ 1 mM).
The mark [3] stands for this setting: Table 2, read-out: Thymidine Uptake (% Reduction @ 1 mM).

Read-outs that look alike come from different tables or passages of the source.

With `CN(C)CCCNC(=O)NCCC(c1ccccc1)c1ccccc1` [Compound 44], under setting [1], the inhibition at 1000 µM was determined as 21%. On to `CN(C)CCCNC(=O)NCC12CCC3CC(CC1C3)C2` (centres unmarked) [Compound 40], for which the inhibition at 1000 µM under setting [1] was 20%.

For `CN(C)CCCNC(=O)Nc1ncnc2[nH]ncc12` [Compound 51], the inhibition at 1000 µM under setting [1] was 86%. For `CCNC(=O)NOC(C)(C)C` [Compound 18], the inhibition at 1000 µM under setting [2] was 25%. On to `CCCN(CCCNC(=O)NCC)CC1CC1` [Compound 29], for which the inhibition at 1000 µM under setting [3] was determined as 23%.

As for `CCNC(=O)NCC(c1ccccc1)c1ccccc1` [Compound 4], the inhibition at 1000 µM under setting [2] was 26%. As for `CCNC(=O)Nc1cccc(OC(F)(F)F)c1` [Compound 10], the inhibition at 1000 µM under setting [2] was determined as 30%.

Turning to `CCNC(=O)NC(C(=O)OCC)C(=O)OCC` [Compound 23], the inhibition at 1000 µM under setting [2] was 12%. Turning to `CCNC(=O)NCCCN1CCN(c2cccc(C)c2C)CC1` [Compound 31, 1-{3′-[4-(2,3-xylyl)-piperazin-1-yl]-propyl}-3-ethyl urea], the inhibition at 1000 µM under setting [3] amounted to 21%. For the molecule `CN(C)CCCNC(=O)Nc1ncc([N+](=O)[O-])s1` [Compound 50], the inhibition at 1000 µM under setting [1] turned out to be 22%. Regarding `CCNC(=O)NCCN1CCCCC1` [Compound 6], the inhibition at 1000 µM under setting [2] turned out to be 33%. As to `CCNC(=O)NCCCN1CCC(Cc2ccccc2)CC1` [Compound 33], the inhibition at 1000 µM under setting [3] is 17%. Turning to `CN(C)CCCNC(=O)NC1Cc2ccccc2C1` [Compound 45], under setting [1], the inhibition at 1000 µM is 20%. `C=CCNC(=O)NCC` [Compound 24]: the inhibition at 1000 µM under setting [2] came to 18%. For `CCNC(=O)Nc1ncnc2[nH]ncc12` [Compound 21], under setting [2], the inhibition at 1000 µM was found to be 95%. On to `CCNC(=O)Nc1ccc(C(N)=O)cc1` [Compound 16], for which the inhibition at 1000 µM under setting [2] stood at 27%.

Turning to `CCNC(=O)NCCCN1CC(C)OC(C)C1` (centres unmarked) [Compound 28], the inhibition at 1000 µM under setting [3] was 13%. With `CN(C)CCCNC(=O)NCc1ccccc1Cl` [Compound 46], the inhibition at 1000 µM under setting [1] was 21%. Take `CCNC(=O)Nc1cccc2nsnc12` [Compound 7]: the inhibition at 1000 µM under setting [2] turned out to be 25%. Same read-out and setting: the figure for `CCNC(=O)NCC1CCCO1` (centres unmarked) [Compound 3] is 26%; for `CCNC(=O)NC(C)(C)CC(C)=O` [Compound 12] it is 35%. In the case of `CCNC(=O)NCCCN1CCC(C(=O)c2ccc(Cl)cc2)CC1` [Compound 35], the inhibition at 1000 µM under setting [3] came to 55%. As to `CCNC(=O)Nc1nc2ccccc2s1` [Compound 8], the inhibition at 1000 µM under setting [2] was determined as 22%. For `CCNC(=O)NCCCN(CCO)Cc1ccccc1` [Compound 30], the inhibition at 1000 µM under setting [3] was determined as 12%.

`CCNC(=O)NCCCN1CCN(c2cc(Cl)ccc2C)CC1` [Compound 36]: the inhibition at 1000 µM under setting [3] was 18%. In the case of `CCNC(=O)NCCCN1CCN(C/C=C\c2ccccc2)CC1` [Compound 37], the inhibition at 1000 µM under setting [3] stood at 23%. Consider `CN(C)CCCNC(=O)Nc1nnn[nH]1` [Compound 52], for which, under setting [1], the inhibition at 1000 µM was 14%. `CCNC(=O)NCCCN1CCSCC1` [Compound 26]: the inhibition at 1000 µM under setting [3] is 16%. In the case of `CCNC(=O)NCCCN1CCN(c2ccccc2)C(C)C1` (centres unmarked) [Compound 38], the inhibition at 1000 µM under setting [3] was 13%. For `COCCCNC(=O)NCCCN(C)C` [Compound 53], under setting [1], the inhibition at 1000 µM worked out at 26%.

With `CCNC(=O)NN1CCCC1` [Compound 9], under setting [2], the inhibition at 1000 µM is 16%. As to `CN(C)CCCNC(=O)NCCc1cccc(Cl)c1` [Compound 48], under setting [1], the inhibition at 1000 µM worked out at 26%. For `CCNC(=O)NCCCN1CCN(c2ncc(C(F)(F)F)cc2Cl)CC1` [Compound 32], the inhibition at 1000 µM under setting [3] stood at 27%. Take `COc1ccc(CNC(=O)NCCCN(C)C)c(OC)c1` [Compound 47]: under setting [1], the inhibition at 1000 µM was found to be 20%. Regarding `CCNC(=O)NCCc1cccc(Cl)c1` [Compound 5], under setting [2], the inhibition at 1000 µM was 24%. Take `CN(C)CCCNC(=O)NCCCCO` [Compound 41]: under setting [1], the inhibition at 1000 µM is 12%.

`CCNC(=O)NCCCN1CCc2ccccc2C1Cc1ccccc1` (centres unmarked) [Compound 34]: the inhibition at 1000 µM under setting [3] stood at 12%.

In the case of `CCCNCCCNC(=O)NCC` [Compound 17], the inhibition at 1000 µM under setting [2] came to 25%.
